What was measured:
Assay in all cases: relative viability (nuclei count vs DMSO), 5 days (fraction); higher = more cells survive
Selumetinib + Phenformin = compound: Cn1cnc2c(F)c(Nc3ccc(Br)cc3Cl)c(C(=O)NOCCO)cc21 [Selumetinib] + N=C(N)NC(=N)NCCc1ccccc1 [Phenformin] (partner 250 µM)
Summary of the method: (§1)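 Five library-drug doses in √10 steps were combined with a fixed anchor-drug dose, or a single drug was given alone, by pin tool to lung cancer cell lines in 1536-well plates the day after seeding. Nuclei were stained and counted after 5 days. Relative viability is the nuclei count in treated wells over that in vehicle wells, taken as the median of duplicate plates.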

Selumetinib = compound: Cn1cnc2c(F)c(Nc3ccc(Br)cc3Cl)c(C(=O)NOCCO)cc21 [Selumetinib]
Summary of the method: (§2)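 Five library-drug doses, separated by factors of √10, were pinned into 1536-well plates holding lung cancer cell lines after an overnight stay at 37 °C. Cells were fixed, permeabilised and Hoechst-stained in one step after 5 days without medium change, then imaged at 4×. Viability compares treated-well with vehicle-well nuclei, counted in MetaXpress, as a median across plates. Passing plates had control CV below 25% and at least one doubling.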

Venetoclax = compound: CC1(C)CCC(CN2CCN(c3ccc(C(=O)NS(=O)(=O)c4ccc(NCC5CCOCC5)c([N+](=O)[O-])c4)c(Oc4cnc5[nH]ccc5c4)c3)CC2)=C(c2ccc(Cl)cc2)C1 [Venetoclax]
Summary of the method: as §2

Venetoclax + Navitoclax = compound: CC1(C)CCC(CN2CCN(c3ccc(C(=O)NS(=O)(=O)c4ccc(NCC5CCOCC5)c([N+](=O)[O-])c4)c(Oc4cnc5[nH]ccc5c4)c3)CC2)=C(c2ccc(Cl)cc2)C1 [Venetoclax] + CC1(C)CCC(c2ccc(Cl)cc2)=C(CN2CCN(c3ccc(C(=O)NS(=O)(=O)c4ccc(N[C@H](CCN5CCOCC5)CSc5ccccc5)c(S(=O)(=O)C(F)(F)F)c4)cc3)CC2)C1 [Navitoclax] (partner 0.5 µM)
Summary of the method: as §1

Cell Line	relative viability (Selumetinib + Phenformin; first compound 0.02 µM)	relative viability (Selumetinib + Phenformin; first compound 0.06325 µM)	relative viability (Selumetinib + Phenformin; first compound 0.2 µM)	relative viability (Selumetinib + Phenformin; first compound 0.6325 µM)	relative viability (Selumetinib; 0.02 µM)	relative viability (Selumetinib; 0.06325 µM)	relative viability (Selumetinib; 0.2 µM)	relative viability (Selumetinib; 0.6325 µM)	relative viability (Venetoclax; 0.01 µM)	relative viability (Venetoclax; 0.03162 µM)	relative viability (Venetoclax; 0.1 µM)	relative viability (Venetoclax; 0.3162 µM)	relative viability (Venetoclax; 1 µM)	relative viability (Venetoclax + Navitoclax; first compound 0.01 µM)	relative viability (Venetoclax + Navitoclax; first compound 0.03162 µM)	relative viability (Venetoclax + Navitoclax; first compound 0.1 µM)	relative viability (Venetoclax + Navitoclax; first compound 0.3162 µM)	relative viability (Venetoclax + Navitoclax; first compound 1 µM)
NCI-H522	0.641	0.556	0.635	0.609	0.896	0.957	1.02	0.927	0.955	1.02	0.976	0.988	0.982	–	–	–	–	–
HCC-366	0.594	0.607	0.512	0.361	0.967	0.992	0.842	0.851	0.995	1.03	0.986	1.02	0.939	1.04	1	1.01	0.987	0.993
A-427	0.264	0.271	0.266	0.23	1.1	0.994	1.03	1.05	0.892	1.14	0.901	1.08	0.998	0.874	1.1	0.967	0.988	1.01
NCI-H2347	0.401	0.256	0.187	0.283	0.917	0.667	0.492	0.386	1.06	1.12	0.965	0.978	0.977	0.793	0.876	0.807	0.855	0.819
NCI-H1792	0.192	–	0.144	0.229	0.901	0.728	0.827	0.689	0.892	1.06	0.918	0.98	0.856	0.649	0.71	0.696	0.671	0.601
LCLC-97TM1	0.44	0.43	0.387	0.399	0.94	0.846	0.735	0.413	0.901	1.16	0.815	0.962	0.853	–	0.608	0.44	0.361	0.446
RERF-LC-KJ	0.368	0.388	0.422	0.395	1	0.936	0.968	0.886	0.987	1.06	0.972	0.909	0.926	0.994	0.961	0.794	1.08	0.89
NCI-H1993	0.506	0.569	0.466	0.551	0.794	0.727	0.728	0.762	0.892	0.999	0.904	0.91	0.838	0.971	0.904	0.944	0.962	0.891
NCI-H1734	0.351	0.298	0.345	0.248	1	0.936	0.928	0.919	0.906	1.03	0.868	0.957	0.912	0.767	1	0.78	0.811	0.787
HCC-44	0.179	0.187	0.209	0.184	1	1.01	1.04	1.1	0.935	0.955	0.983	0.974	0.929	0.987	0.943	0.891	0.979	0.975
SK-MES-1	0.667	0.599	0.637	0.462	0.921	0.885	0.698	0.527	0.961	1.05	0.993	1	0.902	1.25	1.16	1.2	1.25	1.09
EPLC-272H	0.26	0.223	0.211	0.223	0.875	0.774	0.614	0.648	0.874	1.09	0.934	1.03	0.888	–	1.23	1.12	1.14	1.05
NCI-H838	0.502	0.481	0.505	0.474	0.853	0.863	0.854	0.743	0.965	1.05	0.948	0.957	0.906	1.21	1.14	1.1	1.11	1.11
SK-LU-1	0.536	0.484	0.505	0.239	1.07	0.904	0.8	0.484	0.953	1.16	0.991	1.01	1.02	0.502	0.994	0.945	0.729	0.804
NCI-H1623	0.54	0.503	0.483	0.487	0.85	0.83	0.79	0.714	0.951	1.02	0.96	1.01	1.02	–	–	–	–	–
Calu-6	–	–	–	–	1.04	0.777	0.677	0.478	1.03	1.06	0.985	0.991	0.973	0.716	0.934	0.851	0.91	0.832
